# In ChEMBL document CHEMBL1201862, “PubChem BioAssay data set” (2004):
# Where “and” joins values, the source holds several entries; their conditions need not be identical. Equal entries are not always repeated. Calls of active or inactive are those of the source.
# What was measured:
# [1] = NIH-3T3 fibroblast cytotoxicity, dose response, cytotoxicity control, cell-based, fluorescence, Alamar Blue, secondary assay (AID 2327); type: functional;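 further: NIH-3T3 mouse fibroblasts cultured with fluconazole at 8 µg/mL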
# [2] = fluconazole-exposed Candida albicans growth modulators – fluorescence, retest, confirmation (AID 2467); type: functional, cell-based
# [3] = Trypanosoma cruzi growth suppression in host cells – NIH3T3 host cells, beta-gal luminescence, confirmation (AID 2044); type: functional, cell-based;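 further: intracellular parasites grown in NIH/3T3 mouse fibroblasts as host cells; luminescent beta-galactosidase reporter signal from transgenic T. cruzi replicating inside host cells; inhibitors lower the luminescence signal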
# [4] = target: Serine/threonine-protein phosphatase (Candida dubliniensis (strain CD36 / CBS 7987 / NCPF 3949 / NRRLY-17841) (Yeast), UniProt B9W6M3); experiment: blockers of CaCl2-induced CDRE-lacZ signaling – S. cerevisiae, luminescence, secondary, dose response (AID 2388); type: functional, cell-based;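 further: yeast reporter cells carrying a calcineurin-responsive lacZ construct stimulated with calcium chloride; luminescent beta-galactosidase reporter signal in whole cells rather than isolated phosphatase activity; potency for inhibition where a drop in reporter signal means calcineurin blockade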
# [5] = NIH3T3 cell viability loss – ATP luminescence, mouse fibroblasts, counter-screen, dose response (AID 2010); type: functional, cell-based;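 further: cells exposed to compound for about 90 hours before reading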
# [6] = HEK-293T viability loss after treatment – luminescence, T-cell screen hits, cytotoxicity control for TCR NF-kB inhibitor project, dose response (AID 489026); type: functional, cell-based;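 further: cells exposed to compound about 14 hours before the viability readout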
# [7] = target: T1, Microphthalmia-associated transcription factor (Homo sapiens, UniProt O75030); experiment: reducers of TRPM1 reporter luminescence, concentration series – cell-based, SK-MEL-5, cherry-picked, set 3, MITF inhibitor project, dose response (AID 493073); type: functional;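 further: SK-MEL-5 melanoma cells with luciferase driven by the MITF target TRPM1 promoter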
# T1 sequence (O75030 whole entry): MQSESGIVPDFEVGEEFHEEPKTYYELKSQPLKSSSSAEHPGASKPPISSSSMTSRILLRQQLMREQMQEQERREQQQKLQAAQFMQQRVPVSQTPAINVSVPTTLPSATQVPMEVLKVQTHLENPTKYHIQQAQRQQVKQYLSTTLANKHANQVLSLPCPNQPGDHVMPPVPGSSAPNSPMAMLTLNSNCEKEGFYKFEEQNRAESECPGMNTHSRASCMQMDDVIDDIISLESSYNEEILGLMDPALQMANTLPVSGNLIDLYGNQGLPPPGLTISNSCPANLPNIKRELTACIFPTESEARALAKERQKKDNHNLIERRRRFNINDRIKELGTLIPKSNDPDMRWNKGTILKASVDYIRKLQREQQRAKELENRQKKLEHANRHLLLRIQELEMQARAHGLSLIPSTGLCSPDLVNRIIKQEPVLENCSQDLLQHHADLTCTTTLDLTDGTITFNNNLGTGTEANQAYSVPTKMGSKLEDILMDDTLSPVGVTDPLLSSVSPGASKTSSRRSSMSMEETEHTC
# INS1 = experiment: INS-1E survival protection against cytokine death – cell-based, luminescence, retest, dose response (AID 449756); type: functional; details: Rattus norvegicus;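 further: cell death triggered by IL-1 beta plus TNF-alpha plus IFN-gamma mixture; protective hits raise ATP signal compared with cytokine alone wells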
# [8] = target: ATP-dependent molecular chaperone HSP82 (Candida albicans (strain WO-1) (Yeast), UniProt C4YTQ8); experiment: steroid-induced GRE reporter decrease in yeast – S. cerevisiae, luminescence, Hsp90 inhibitor project, dose response (AID 2400); type: functional, cell-based;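 further: beta-galactosidase luminescence from glucocorticoid response element reporter as proxy for Hsp90 function; inhibitor potency where signal loss means Hsp90 inhibition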
# [9] = target: T2, COUP transcription factor 2 (Homo sapiens, UniProt P24468); experiment: Luminescence-based cell-based high throughput dose response assay to identify inhibitors of COUP-TFII (NR2F2).; type: functional;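 further: HEK293 cells transiently cotransfected with COUP-TFII expression vector and reporter; luciferase reporter luminescence driven by COUP-TFII from the pX2-168 reporter plasmid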
# T2 sequence (P24468 whole entry): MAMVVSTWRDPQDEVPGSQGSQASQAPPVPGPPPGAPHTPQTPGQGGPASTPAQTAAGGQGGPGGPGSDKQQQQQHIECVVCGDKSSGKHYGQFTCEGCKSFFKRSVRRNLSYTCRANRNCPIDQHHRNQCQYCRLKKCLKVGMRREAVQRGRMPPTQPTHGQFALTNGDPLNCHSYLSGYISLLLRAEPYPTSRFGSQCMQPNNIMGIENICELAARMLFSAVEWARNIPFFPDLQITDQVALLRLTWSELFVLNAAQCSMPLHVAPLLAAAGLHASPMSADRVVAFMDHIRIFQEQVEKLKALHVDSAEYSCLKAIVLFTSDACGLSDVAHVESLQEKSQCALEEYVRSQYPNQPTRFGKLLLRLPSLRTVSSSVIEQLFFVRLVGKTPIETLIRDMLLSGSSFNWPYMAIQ
# Cytochrome P450 2C19 = Cytochrome P450 2C19 (Homo sapiens, UniProt P33261); experiment: Cytochrome panel assay with activity outcomes. Panel member name: p450-cyp2c19 Compounds with AC50 equal or less than 10 uM are considered active; type: functional; details: read-out: AC50
# Cytochrome P450 2D6 = Cytochrome P450 2D6 (Homo sapiens, UniProt P10635);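 further: CYP2D6 member of a cytochrome P450 panel assay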
# [10] = target: Voltage-gated inwardly rectifying potassium channel KCNH2 (Homo sapiens, UniProt Q12809); details: Potency;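 further: confirmatory quantitative high-throughput screen measuring inhibition of hERG channel activity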
# Cytochrome P450 3A4 = Cytochrome P450 3A4 (Homo sapiens, UniProt P08684); details: Potency;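 further: confirmatory qHTS run detecting inhibitors and substrates of CYP3A4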
# Beta-galactosidase = Beta-galactosidase (Escherichia coli, UniProt Q8VNN2); experiment: PubChem AID 485352; type: functional
# [11] = target: T3, Type-1 angiotensin II receptor (Homo sapiens, UniProt P30556); experiment: antagonism of angiotensin II type 1 receptor – cell-based, uHTS hits, selectivity assay for APJ receptor antagonist project, dose response (AID 463214); type: functional;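 further: antagonist potency against angiotensin II stimulated AT1 response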
# T3 sequence (P30556 whole entry): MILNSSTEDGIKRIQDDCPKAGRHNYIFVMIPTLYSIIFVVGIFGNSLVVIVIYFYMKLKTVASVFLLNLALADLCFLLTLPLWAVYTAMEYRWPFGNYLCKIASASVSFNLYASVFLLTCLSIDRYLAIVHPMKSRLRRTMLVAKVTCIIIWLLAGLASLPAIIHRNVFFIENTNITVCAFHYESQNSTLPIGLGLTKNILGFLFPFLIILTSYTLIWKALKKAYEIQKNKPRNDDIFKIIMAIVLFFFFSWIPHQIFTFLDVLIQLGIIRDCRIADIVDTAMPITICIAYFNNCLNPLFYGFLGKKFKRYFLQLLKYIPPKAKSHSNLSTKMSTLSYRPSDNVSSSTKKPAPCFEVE
# Sequence of Cytochrome P450 3A4 (P08684 whole entry): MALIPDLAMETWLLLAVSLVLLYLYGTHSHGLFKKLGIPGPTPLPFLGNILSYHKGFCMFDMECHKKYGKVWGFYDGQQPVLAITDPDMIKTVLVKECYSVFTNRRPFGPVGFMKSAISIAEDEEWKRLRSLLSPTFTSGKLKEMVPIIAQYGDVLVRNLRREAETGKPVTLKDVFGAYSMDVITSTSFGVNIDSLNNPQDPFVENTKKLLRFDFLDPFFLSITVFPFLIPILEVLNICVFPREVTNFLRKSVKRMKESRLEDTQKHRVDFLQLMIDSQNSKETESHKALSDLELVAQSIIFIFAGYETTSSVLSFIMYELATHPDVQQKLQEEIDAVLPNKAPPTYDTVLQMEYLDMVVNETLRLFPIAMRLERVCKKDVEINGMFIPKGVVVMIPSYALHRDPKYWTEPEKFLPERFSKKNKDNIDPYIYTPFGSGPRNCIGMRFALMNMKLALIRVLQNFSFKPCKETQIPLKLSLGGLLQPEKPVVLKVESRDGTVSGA
# Sequence of ATP-dependent molecular chaperone HSP82 (C4YTQ8 whole entry): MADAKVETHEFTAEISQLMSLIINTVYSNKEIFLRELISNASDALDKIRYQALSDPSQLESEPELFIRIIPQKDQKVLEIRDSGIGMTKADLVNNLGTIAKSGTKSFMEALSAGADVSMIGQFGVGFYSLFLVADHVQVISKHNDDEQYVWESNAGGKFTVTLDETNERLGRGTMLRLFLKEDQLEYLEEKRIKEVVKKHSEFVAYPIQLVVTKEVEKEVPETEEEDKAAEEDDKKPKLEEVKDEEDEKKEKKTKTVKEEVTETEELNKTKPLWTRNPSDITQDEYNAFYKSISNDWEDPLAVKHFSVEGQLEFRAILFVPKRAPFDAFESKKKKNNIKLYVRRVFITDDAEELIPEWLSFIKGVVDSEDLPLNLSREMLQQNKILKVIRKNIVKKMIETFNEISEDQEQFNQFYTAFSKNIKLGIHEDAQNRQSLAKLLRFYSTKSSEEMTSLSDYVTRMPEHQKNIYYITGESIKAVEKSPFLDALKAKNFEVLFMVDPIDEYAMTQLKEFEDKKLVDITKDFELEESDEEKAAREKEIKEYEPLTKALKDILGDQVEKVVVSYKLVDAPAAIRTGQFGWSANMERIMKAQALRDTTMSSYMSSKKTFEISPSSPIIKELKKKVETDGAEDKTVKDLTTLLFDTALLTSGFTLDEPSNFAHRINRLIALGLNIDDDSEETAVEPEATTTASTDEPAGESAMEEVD
# Sequence of Voltage-gated inwardly rectifying potassium channel KCNH2 (Q12809 whole entry): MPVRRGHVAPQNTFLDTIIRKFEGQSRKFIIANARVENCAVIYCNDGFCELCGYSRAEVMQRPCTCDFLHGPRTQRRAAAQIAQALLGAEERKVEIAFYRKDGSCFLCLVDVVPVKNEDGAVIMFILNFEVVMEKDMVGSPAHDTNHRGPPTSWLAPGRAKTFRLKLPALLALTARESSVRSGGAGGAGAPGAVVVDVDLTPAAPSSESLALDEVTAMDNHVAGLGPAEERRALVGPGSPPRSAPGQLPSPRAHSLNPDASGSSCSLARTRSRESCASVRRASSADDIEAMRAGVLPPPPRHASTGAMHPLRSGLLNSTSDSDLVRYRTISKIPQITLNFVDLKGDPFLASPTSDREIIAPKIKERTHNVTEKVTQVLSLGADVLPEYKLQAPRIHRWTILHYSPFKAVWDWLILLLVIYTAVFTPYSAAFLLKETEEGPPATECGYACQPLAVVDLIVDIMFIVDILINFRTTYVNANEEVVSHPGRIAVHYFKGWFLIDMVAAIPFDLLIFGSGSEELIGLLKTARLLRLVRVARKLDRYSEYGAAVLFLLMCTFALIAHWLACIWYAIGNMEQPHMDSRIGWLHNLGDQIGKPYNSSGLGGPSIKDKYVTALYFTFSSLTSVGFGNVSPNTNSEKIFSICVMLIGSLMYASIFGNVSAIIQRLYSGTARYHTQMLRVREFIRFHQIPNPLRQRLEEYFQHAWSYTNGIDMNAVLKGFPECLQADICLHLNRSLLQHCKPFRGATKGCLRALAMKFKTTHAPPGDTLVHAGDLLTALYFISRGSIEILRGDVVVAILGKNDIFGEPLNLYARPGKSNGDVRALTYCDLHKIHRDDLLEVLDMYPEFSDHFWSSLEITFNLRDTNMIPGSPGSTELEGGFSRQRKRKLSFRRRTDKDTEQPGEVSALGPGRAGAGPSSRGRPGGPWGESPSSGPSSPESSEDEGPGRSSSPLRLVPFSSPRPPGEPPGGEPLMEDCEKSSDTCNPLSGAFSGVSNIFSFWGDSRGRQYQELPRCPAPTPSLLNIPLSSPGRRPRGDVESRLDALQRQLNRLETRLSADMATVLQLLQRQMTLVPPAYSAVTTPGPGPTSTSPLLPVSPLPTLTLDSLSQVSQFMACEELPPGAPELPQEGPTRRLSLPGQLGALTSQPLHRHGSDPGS
# Sequence of Serine/threonine-protein phosphatase (B9W6M3 whole entry): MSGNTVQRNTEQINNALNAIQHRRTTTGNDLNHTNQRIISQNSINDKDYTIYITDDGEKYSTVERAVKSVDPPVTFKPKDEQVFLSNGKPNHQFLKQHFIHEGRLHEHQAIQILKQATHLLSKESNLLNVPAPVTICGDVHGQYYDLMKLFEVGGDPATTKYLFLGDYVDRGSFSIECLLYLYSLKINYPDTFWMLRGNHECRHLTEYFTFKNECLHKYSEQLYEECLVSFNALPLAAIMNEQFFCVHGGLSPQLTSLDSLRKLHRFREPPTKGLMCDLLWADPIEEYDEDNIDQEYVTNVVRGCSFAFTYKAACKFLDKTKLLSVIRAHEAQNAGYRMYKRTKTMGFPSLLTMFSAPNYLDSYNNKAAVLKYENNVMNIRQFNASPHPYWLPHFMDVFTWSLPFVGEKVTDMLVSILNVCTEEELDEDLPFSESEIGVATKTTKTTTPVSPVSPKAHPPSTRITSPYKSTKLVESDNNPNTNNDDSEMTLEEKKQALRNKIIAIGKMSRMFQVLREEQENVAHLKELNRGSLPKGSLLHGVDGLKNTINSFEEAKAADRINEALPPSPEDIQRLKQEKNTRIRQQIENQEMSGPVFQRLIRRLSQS
# Sequence of Cytochrome P450 2C19 (P33261 whole entry): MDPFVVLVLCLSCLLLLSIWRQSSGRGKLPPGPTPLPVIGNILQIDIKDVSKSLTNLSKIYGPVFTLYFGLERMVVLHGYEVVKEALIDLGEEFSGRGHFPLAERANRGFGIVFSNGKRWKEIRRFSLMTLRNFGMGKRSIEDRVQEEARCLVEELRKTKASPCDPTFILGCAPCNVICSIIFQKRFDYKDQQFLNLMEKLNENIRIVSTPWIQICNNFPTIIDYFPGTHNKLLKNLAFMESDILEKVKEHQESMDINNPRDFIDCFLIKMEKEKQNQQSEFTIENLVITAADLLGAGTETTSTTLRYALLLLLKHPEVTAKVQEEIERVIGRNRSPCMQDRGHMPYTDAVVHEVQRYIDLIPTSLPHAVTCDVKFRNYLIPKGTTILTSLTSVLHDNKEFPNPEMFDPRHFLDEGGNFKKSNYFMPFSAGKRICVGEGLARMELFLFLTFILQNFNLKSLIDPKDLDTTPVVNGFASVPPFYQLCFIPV
# Sequence of Beta-galactosidase (Q8VNN2 whole entry): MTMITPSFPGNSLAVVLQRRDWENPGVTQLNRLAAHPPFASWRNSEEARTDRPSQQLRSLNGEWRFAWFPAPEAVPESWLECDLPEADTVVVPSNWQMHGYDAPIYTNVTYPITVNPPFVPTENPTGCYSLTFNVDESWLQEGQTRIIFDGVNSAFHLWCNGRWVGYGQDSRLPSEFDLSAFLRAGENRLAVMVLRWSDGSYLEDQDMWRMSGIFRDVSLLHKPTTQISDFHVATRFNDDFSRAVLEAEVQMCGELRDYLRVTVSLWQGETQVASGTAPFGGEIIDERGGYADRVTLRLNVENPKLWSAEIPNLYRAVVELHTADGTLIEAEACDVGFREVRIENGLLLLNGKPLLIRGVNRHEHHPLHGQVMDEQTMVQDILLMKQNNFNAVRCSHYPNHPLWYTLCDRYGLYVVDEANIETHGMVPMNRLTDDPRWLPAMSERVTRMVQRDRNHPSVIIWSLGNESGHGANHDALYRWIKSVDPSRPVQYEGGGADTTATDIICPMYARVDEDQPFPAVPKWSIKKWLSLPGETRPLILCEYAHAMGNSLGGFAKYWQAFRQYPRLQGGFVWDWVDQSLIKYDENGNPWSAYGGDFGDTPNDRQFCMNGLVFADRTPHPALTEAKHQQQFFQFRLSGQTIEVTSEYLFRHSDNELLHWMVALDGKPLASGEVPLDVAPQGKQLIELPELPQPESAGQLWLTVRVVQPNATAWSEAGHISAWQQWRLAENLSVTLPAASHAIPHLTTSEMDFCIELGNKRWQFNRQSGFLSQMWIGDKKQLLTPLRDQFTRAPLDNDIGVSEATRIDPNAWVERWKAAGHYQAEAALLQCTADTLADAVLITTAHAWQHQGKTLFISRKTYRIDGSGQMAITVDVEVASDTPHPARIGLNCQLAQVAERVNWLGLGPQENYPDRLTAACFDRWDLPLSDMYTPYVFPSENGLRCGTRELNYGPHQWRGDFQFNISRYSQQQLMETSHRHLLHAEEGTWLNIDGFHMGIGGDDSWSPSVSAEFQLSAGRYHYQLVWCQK
# Sequence of Cytochrome P450 2D6 (P10635 whole entry): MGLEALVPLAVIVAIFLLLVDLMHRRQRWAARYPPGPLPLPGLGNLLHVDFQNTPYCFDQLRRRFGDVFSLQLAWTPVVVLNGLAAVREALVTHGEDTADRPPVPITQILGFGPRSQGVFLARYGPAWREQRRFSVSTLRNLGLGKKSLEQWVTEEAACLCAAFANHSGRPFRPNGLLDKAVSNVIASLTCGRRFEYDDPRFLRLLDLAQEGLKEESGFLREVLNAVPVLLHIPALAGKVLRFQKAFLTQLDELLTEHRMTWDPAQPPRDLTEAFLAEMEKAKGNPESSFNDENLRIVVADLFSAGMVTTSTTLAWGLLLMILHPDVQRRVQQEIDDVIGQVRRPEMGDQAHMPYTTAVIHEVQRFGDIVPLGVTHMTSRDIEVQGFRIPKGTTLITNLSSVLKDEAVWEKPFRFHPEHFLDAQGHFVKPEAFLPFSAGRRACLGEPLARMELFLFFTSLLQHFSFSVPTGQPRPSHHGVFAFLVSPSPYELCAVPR
structure (smiles),measurement,setting,value
COc1ccc(-[n+]2cc(-c3ccc(C)cc3)n3c2SCC3)cc1,EC50,[1],> 150 µM (inactive)
same,EC50,[2],1.17 µM (active)
same,EC50,[3],0.318 µM (active)
same,EC50,[4],> 180 µM (inactive)
same,EC50,[5],> 60 µM (not active)
same,IC50,[6],> 80 µM (inactive)
same,AC50,[7],2.91 µM (active)
same,AC50,INS1,1.12 µM (active)
same,EC50,[8],> 150 µM (inactive)
same,IC50,[9],7.65 µM (active)
O=c1oc(Cl)c(Cl)c2ccccc12,AC50,Cytochrome P450 2C19,25.1 µM (inconclusive)
same,AC50,Cytochrome P450 2D6,31.6 µM (inconclusive)
same,AC50,[10],2.82 µM (inconclusive)
C[C@]12CC[C@H](O)C[C@@H]1CC[C@@H]1[C@@H]2CC[C@]2(C)C(=O)CC[C@@H]12 [EPIANDROSTERONE],EC50,[2],877 nM (active) and 1.15 µM (active)
same,EC50,[4],> 180 µM (inactive)
same,EC50,[8],24.2 µM (active)
same,AC50,Cytochrome P450 3A4,20 µM (inconclusive)
CCC(=O)/C=C/C1C(C)=CCCC1(C)C (stereo unspecified),AC50,Cytochrome P450 3A4,31.6 µM (inconclusive)
same,AC50,[10],39.8 µM (inconclusive)
CCC1CCCCN1CC(=O)c1ccc(OC(F)F)cc1 (stereo unspecified),EC50,Beta-galactosidase,> 40 µM (inactive)
same,IC50,[11],> 40 µM (not active)
